In ChEMBL document CHEMBL1201862, “PubChem BioAssay data set” (2004):
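Tested at 5 concentrations; 48 h exposure; 96-well plates; endpoints linearly interpolated, else capped at highest concentration. GI50 is the concentration that inhibits growth by half.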 The source made the active and inactive calls. No stated cut-off is given here; in the data, active = GI50 up to about 1.1 µM and inactive = higher.

Legend:
Test in all cases: growth of human tumour cells (NCI), 48 h
MDA-MB-231 = test system: MDA-MB-231
OVCAR-3 = test system: OVCAR-3
U-251 = test system: U-251
HCC 2998 = test system: HCC 2998
HCT-116 = test system: HCT-116
CAKI-1 = test system: CAKI-1
A498 = test system: A498
IGROV-1 = test system: IGROV-1
CCRF-CEM = test system: CCRF-CEM
SNB-19 = test system: SNB-19
SW-620 = test system: SW-620
RPMI-8226 = test system: RPMI-8226
HOP-62 = test system: HOP-62
SR = test system: SR
NCI-H460 = test system: NCI-H460
KM12 = test system: KM12
MCF7 = test system: MCF7
ACHN = test system: ACHN
NCI-H522 = test system: NCI-H522
T47D = test system: T47D

Measured: GI50

O=C1/C(=C/c2ccc(Cl)c(Cl)c2)CNC/C1=C\c1ccc(Cl)c(Cl)c1
inactive: MDA-MB-231 3.14 µM | OVCAR-3 3.89 µM | U-251 5.11 µM | HCC 2998 9.66 µM | HCT-116 2.57 µM | CAKI-1 4.09 µM | A498 18.3 µM | IGROV-1 7.6 µM | CCRF-CEM 2.29 µM | SNB-19 1.46 µM | SW-620 1.38 µM | RPMI-8226 3.75 µM | HOP-62 14.5 µM | SR 3.96 µM | NCI-H460 10.3 µM | KM12 6.76 µM | MCF7 7.64 µM | ACHN 18.1 µM | NCI-H522 11 µM

O=c1s[s+]([O-])c2ccccc12 (configuration not stated)
inactive: MDA-MB-231 > 100 µM | OVCAR-3 > 100 µM | U-251 > 100 µM | HCC 2998 > 100 µM | HCT-116 > 100 µM | CAKI-1 > 100 µM | A498 > 100 µM | IGROV-1 > 100 µM | CCRF-CEM 61.4 µM | SNB-19 > 100 µM | SW-620 > 100 µM | RPMI-8226 62.1 µM | HOP-62 > 100 µM | SR > 100 µM | NCI-H460 46.8 µM | KM12 > 100 µM | MCF7 > 100 µM | ACHN > 100 µM | NCI-H522 39.4 µM

COc1ccc2c(c1O)[C@@]13CCCC=C1[C@@H](C2)[N+](C)(C)CC3
inactive: MDA-MB-231 > 100 µM | OVCAR-3 37.2 µM | U-251 > 100 µM | HCC 2998 > 100 µM | HCT-116 > 100 µM | CAKI-1 > 100 µM | IGROV-1 > 100 µM | CCRF-CEM > 100 µM | SNB-19 > 100 µM | T47D > 100 µM | SW-620 > 100 µM | HOP-62 > 100 µM | NCI-H460 > 100 µM | KM12 > 100 µM | MCF7 > 100 µM | ACHN > 100 µM | NCI-H522 63 µM

N#CC1C(=O)NC2=C(CCOc3c2ccc2ccccc32)C1c1ccc(F)cc1 (configuration not stated)
inactive: OVCAR-3 21.1 µM | U-251 12.3 µM | HCC 2998 23.9 µM | HCT-116 14 µM | CAKI-1 31.5 µM | A498 19.7 µM | IGROV-1 17.3 µM | CCRF-CEM 28.4 µM | SNB-19 20 µM | T47D 27.4 µM | SW-620 31 µM | HOP-62 18.5 µM | NCI-H460 29.9 µM | KM12 67.5 µM | MCF7 36.7 µM | ACHN 13.3 µM | NCI-H522 37.1 µM

CCCCCCCCCCCCN1[C@H]2CCC[C@H]2C(O)[C@@H]2CCC[C@@H]21 (some centres not stated)
inactive: MDA-MB-231 > 100 µM | OVCAR-3 > 100 µM | U-251 77.4 µM | HCC 2998 > 100 µM | HCT-116 53.8 µM | CAKI-1 > 100 µM | A498 > 100 µM | IGROV-1 98.9 µM | CCRF-CEM > 100 µM | SNB-19 > 100 µM | T47D 29.2 µM | SW-620 > 100 µM | RPMI-8226 > 100 µM | HOP-62 > 100 µM | SR 41 µM | NCI-H460 > 100 µM | KM12 68.2 µM | ACHN > 100 µM

CC(NC(=O)C(OC(=O)C(C)NC(=O)OC(C)(C)C)C(C)C)C(=O)OC(C(=O)O)C(C)C (configuration not stated)
inactive: MDA-MB-231 > 100 µM | OVCAR-3 > 100 µM | U-251 > 100 µM | HCC 2998 > 100 µM | CAKI-1 > 100 µM | IGROV-1 > 100 µM | SNB-19 > 100 µM | T47D > 100 µM | SW-620 > 100 µM | RPMI-8226 > 100 µM | HOP-62 > 100 µM | SR > 100 µM | NCI-H460 > 100 µM | KM12 > 100 µM | ACHN > 100 µM | NCI-H522 > 100 µM

C[C@@H]1CC(=O)C[C@@H]2CC[C@H]3[C@@H]4CC[C@H](OC(=O)c5cccc6cc7ccccc7nc56)[C@H]4CC[C@@H]3[C@H]21
inactive: MDA-MB-231 15.9 µM | OVCAR-3 15.2 µM | U-251 7.11 µM | HCT-116 14.1 µM | CAKI-1 17.4 µM | IGROV-1 3.89 µM | SNB-19 17.7 µM | T47D 13.7 µM | SW-620 17.4 µM | HOP-62 22.8 µM | NCI-H460 14.1 µM | KM12 14.3 µM | ACHN 15.7 µM | NCI-H522 5.6 µM

CNC(=S)NNc1ncnc2c1ncn2-c1ccc(C)cc1
inactive: MDA-MB-231 43.9 µM | OVCAR-3 > 100 µM | U-251 > 100 µM | HCT-116 > 100 µM | CAKI-1 > 100 µM | A498 > 100 µM | IGROV-1 > 100 µM | CCRF-CEM > 100 µM | SNB-19 > 100 µM | T47D > 100 µM | SW-620 > 100 µM | RPMI-8226 > 100 µM | HOP-62 > 100 µM | SR > 100 µM | NCI-H460 > 100 µM | KM12 > 100 µM | NCI-H522 > 100 µM

COc1cc(NC(C)=O)ccc1C(=O)NN1C(=O)C(Cl)C1c1ccco1 (configuration not stated)
inactive: OVCAR-3 > 100 µM | HCT-116 > 100 µM | CAKI-1 88.9 µM | A498 > 100 µM | IGROV-1 80.5 µM | CCRF-CEM 65.3 µM | SNB-19 > 100 µM | T47D > 100 µM | SW-620 > 100 µM | RPMI-8226 > 100 µM | SR 36.6 µM | KM12 > 100 µM | MCF7 58.3 µM | ACHN 86.3 µM | NCI-H522 > 100 µM

CCOC(=O)c1[nH]c2ccccc2c1C(=O)C[C@H](NC(=O)C(F)(F)F)C(=O)OC
inactive: MDA-MB-231 > 100 µM | OVCAR-3 > 100 µM | U-251 > 100 µM | HCC 2998 > 100 µM | HCT-116 > 100 µM | CAKI-1 > 100 µM | A498 > 100 µM | IGROV-1 > 100 µM | CCRF-CEM > 100 µM | SNB-19 > 100 µM | SW-620 > 100 µM | RPMI-8226 > 100 µM | HOP-62 > 100 µM | SR > 100 µM | NCI-H460 29.3 µM | KM12 > 100 µM | MCF7 > 100 µM | ACHN > 100 µM | NCI-H522 97.3 µM

COC(=O)C(=CNC(N)=O)C(=O)OC
inactive: OVCAR-3 > 100 µM | HCT-116 > 100 µM | CAKI-1 > 100 µM | IGROV-1 > 100 µM | CCRF-CEM > 100 µM | SNB-19 > 100 µM | T47D > 100 µM | SW-620 > 100 µM | RPMI-8226 > 100 µM | HOP-62 > 100 µM | SR > 100 µM | NCI-H460 > 100 µM | KM12 > 100 µM | MCF7 > 100 µM | ACHN > 100 µM | NCI-H522 > 100 µM
